{"source": "paper PMC9403717", "about": "“Ruthenium complexes show potent inhibition of AKR1C1, AKR1C2, and AKR1C3 enzymes and anti-proliferative action against chemoresistant ovarian cancer cell line” (Frontiers in Pharmacology, 2022)", "key": {"AKR1C1": {"molecular_target": "T1, AKR1C1 (Homo sapiens, UniProt Q04828)", "T1 construct": "made in house", "T1 sequence (Q04828 1-323)": "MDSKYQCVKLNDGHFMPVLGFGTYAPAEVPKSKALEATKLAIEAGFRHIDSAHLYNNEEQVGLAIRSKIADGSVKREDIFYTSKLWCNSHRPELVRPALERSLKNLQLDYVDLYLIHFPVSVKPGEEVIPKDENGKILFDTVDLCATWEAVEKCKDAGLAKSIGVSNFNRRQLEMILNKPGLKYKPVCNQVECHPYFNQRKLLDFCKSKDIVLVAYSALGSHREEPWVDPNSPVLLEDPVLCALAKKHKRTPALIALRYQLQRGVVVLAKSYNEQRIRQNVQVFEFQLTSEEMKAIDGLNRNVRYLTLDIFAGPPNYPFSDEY", "experiment": "Inhibition of recombinant AKR1C1, oxidation of 1-acenaphthenol, progress-curve analysis", "type": "biochemical", "conditions": "for k+3: irreversible binding of second inhibitor molecule to E-NADH-I; for k+2: irreversible binding of second inhibitor molecule to E-NAD-I", "protocol": "(§1) To investigate the effect of ten selected ruthenium compounds, we measured their effect on the time course of oxidation of the artificial substrate 1-acenaphtenol by recombinant enzymes AKR1C1–3. The recombinant enzymes AKR1C1–AKR1C3 were prepared as described previously ([Brozic et al., 2006]). Since the artificial substrate is racemic, the oxidation follows a double exponential pattern as described previously ([Traven et al., 2015]). The in vitro catalytic activity of AKR1C1–3 enzymes was determined spectrophotometrically by monitoring the increase in NADH absorbance at 340 nm (ε(λ340) = 6220 M^−1cm^−1) in the presence of the substrate 1-acenaphthenol. Enzymatic reactions (300 µL) were performed in 100 mm potassium phosphate buffer (pH 9.0), 0.005% (v/v) TritonX-114, 5% (v/v) DMSO, containing 2.3 mm NAD^+ and 1-acenaphthenol at final concentrations of 90, 180, and 250 µM for AKR1C1, AKR1C2, and AKR1C3, respectively. A total of 5 µL of a tested compound in DMSO was added to the reaction mixture. The final concentrations of the tested compounds ranged from 1 to 200 μM, depending on the extent of inhibition (Supplementary Data). The reaction was started by adding 15 µL of AKR1C1, AKR1C2, or AKR1C3 dissolved in 1x PBS (pH 7.3) at final concentrations of 0.11, 0.16, and 1.5 µM, respectively. AKR1C1–3 activity was measured at 37°C for 3 h without shaking using a PowerWave XS microplate reader (Biotek; Winooski, VT, United States). Measurements at seven different concentrations were performed in duplicates or triplicates (Supplementary Figures S2). To mechanistically explain all the obtained progress curves for each ruthenium complex on each enzyme by a common reaction scheme, we extended the originally proposed scheme so that the interaction of the ruthenium complex with apo- and holoenzyme was allowed to be rapid and followed by a slow irreversible association of a second ruthenium complex molecule. However, the affinity of the Ru complexes for the apoenzymes was much lower so this part was excluded from the proposed kinetic model for clarity (Figure 4).\n(§2) FIGURE 4 Reaction scheme for the oxidation of 1-acenaphtenol by AKR1C1-3 and its inhibition by ruthenium compounds. E represents apoenzyme, E-NAD and E-NADH represent holoenzyme with bound NAD^+ and NADH, respectively. A and B are enantiomers of substrate 1-acenaphtenol. Symbols which include I (ruthenium compound) represent holoenzyme in complex with one or two inhibitor molecules. KNAD, KNADH, and K2-3 are equilibrium constants and k+2–3 are second-order association rate constants for the binding of the second inhibitor molecule to the enzyme. The progress curves for each enzyme in the presence of ruthenium complexes were analyzed by the WEB server ENZO (https://enzo.cmm.ki.si/) designed exactly for such purposes ([Bevc et al., 2011])."}, "AKR1C3": {"molecular_target": "T2, AKR1C3 (Homo sapiens, UniProt P42330)", "T2 construct": "made in house", "T2 sequence (P42330 1-323)": "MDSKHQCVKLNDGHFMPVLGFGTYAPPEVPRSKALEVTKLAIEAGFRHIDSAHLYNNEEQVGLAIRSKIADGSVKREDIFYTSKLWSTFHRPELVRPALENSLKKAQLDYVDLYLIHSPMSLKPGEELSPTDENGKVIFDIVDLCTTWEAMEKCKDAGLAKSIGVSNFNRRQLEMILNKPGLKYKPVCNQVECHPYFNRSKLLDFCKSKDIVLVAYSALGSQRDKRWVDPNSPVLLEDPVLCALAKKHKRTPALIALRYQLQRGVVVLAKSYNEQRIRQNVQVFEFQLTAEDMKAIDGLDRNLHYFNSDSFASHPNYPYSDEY", "experiment": "Inhibition of recombinant AKR1C3, oxidation of 1-acenaphthenol, progress-curve analysis", "type": "biochemical", "conditions": "for k+3 / pKi / k+2 / inhibitory effect (in words) / irreversible inhibition (in words): AKR1C3; for k+3: irreversible binding of second inhibitor molecule to E-NADH-I; for fold less efficient inhibition of AKR1C3 compared to AKR1C1: from K3 values; for k+2: irreversible binding of second inhibitor molecule to E-NAD-I", "protocol": "as §1, §2"}, "[1]": {"conditions": "reversible binding to holoenzyme E-NADH, read-out: K3"}, "[2]": {"conditions": "reversible binding to holoenzyme E-NAD, read-out: K2"}}, "note": "pKi: −log10 of the molar value. Read-outs that look alike come from different tables or passages of the source."}
{"smiles": "Cc1ccc(C(C)C)cc1.O=C(C=C([O][Ru][Cl])c1ccc(I)cc1)C(F)(F)F", "note": "[Compound 1]", "values": [{"measurement": "k+3", "setting": "AKR1C1", "value": 9.4, "unit": "M⁻¹ s⁻¹"}, {"measurement": "pKi", "setting": "AKR1C1; [1]", "value": 7.67}, {"measurement": "k+3", "setting": "AKR1C3", "value": 0.9, "unit": "M⁻¹ s⁻¹"}, {"measurement": "pKi", "setting": "AKR1C3; [2]", "value": 3.98}, {"measurement": "pKi", "setting": "AKR1C3; [1]", "value": 6.79}, {"measurement": "fold less efficient inhibition of AKR1C3 compared to AKR1C1", "setting": "AKR1C3", "value": 7.6, "unit": "fold"}]}
{"smiles": "C1N2CN3CN1CP(C2)C3.Cc1ccc(C(C)C)cc1.F[P-](F)(F)(F)(F)F.O=C(C=C([O][Ru+])c1ccc(I)cc1)C(F)(F)F", "note": "[Compound 2]", "values": [{"measurement": "k+2", "setting": "AKR1C1", "value": 25.9, "unit": "M⁻¹ s⁻¹"}, {"measurement": "pKi", "setting": "AKR1C1; [2]", "value": 5.55}, {"measurement": "k+2", "setting": "AKR1C3", "value": 5.3, "unit": "M⁻¹ s⁻¹"}, {"measurement": "pKi", "setting": "AKR1C3; [2]", "value": 3.94}]}
{"smiles": "CN(C)c1ccc(C(=CC(=O)C(F)(F)F)[O][Ru][Cl])cc1.Cc1ccc(C(C)C)cc1", "note": "[Compound 3, (η^6-p-cymene)chlorido(4,4,4-trifluoro-1-(4-(dimethylamino)phenyl)-1,3-butandionato)ruthenium(II)]", "values": [{"measurement": "k+2", "setting": "AKR1C1", "value": 31.5, "unit": "M⁻¹ s⁻¹"}, {"measurement": "k+3", "setting": "AKR1C1", "value": 4.3, "unit": "M⁻¹ s⁻¹"}, {"measurement": "pKi", "setting": "AKR1C1; [2]", "value": 3.97}, {"measurement": "pKi", "setting": "AKR1C1; [1]", "value": 7.37}, {"measurement": "k+2", "setting": "AKR1C3", "value": 10.2, "unit": "M⁻¹ s⁻¹"}, {"measurement": "k+3", "setting": "AKR1C3", "value": 1.2, "unit": "M⁻¹ s⁻¹"}, {"measurement": "pKi", "setting": "AKR1C3; [2]", "value": 3.75}, {"measurement": "pKi", "setting": "AKR1C3; [1]", "value": 6.51}, {"measurement": "fold less efficient inhibition of AKR1C3 compared to AKR1C1", "setting": "AKR1C3", "value": 7.1, "unit": "fold"}]}
{"smiles": "Cc1ccc(C(C)C)cc1.O=C(C=C([O][Ru][Cl])c1ccc2c(c1)OCO2)C(F)(F)F", "note": "[Compound 5]", "values": [{"measurement": "k+3", "setting": "AKR1C1", "value": 6.0, "unit": "M⁻¹ s⁻¹"}, {"measurement": "pKi", "setting": "AKR1C1; [1]", "value": 7.63}, {"measurement": "k+3", "setting": "AKR1C3", "value": 0.5, "unit": "M⁻¹ s⁻¹"}, {"measurement": "pKi", "setting": "AKR1C3; [1]", "value": 6.82}, {"measurement": "fold less efficient inhibition of AKR1C3 compared to AKR1C1", "setting": "AKR1C3", "value": 6.3, "unit": "fold"}]}
{"smiles": "C1N2CN3CN1CP(C2)C3.Cc1ccc(C(C)C)cc1.F[P-](F)(F)(F)(F)F.O=C(C=C([O][Ru+])c1ccc2c(c1)OCO2)C(F)(F)F", "note": "[Compound 6]", "values": [{"measurement": "k+2", "setting": "AKR1C1", "value": 48.8, "unit": "M⁻¹ s⁻¹"}, {"measurement": "pKi", "setting": "AKR1C1; [2]", "value": 5.51}, {"measurement": "k+2", "setting": "AKR1C3", "value": 90, "unit": "M⁻¹ s⁻¹"}, {"measurement": "pKi", "setting": "AKR1C3; [2]", "value": 4.03}]}
{"smiles": "Cc1ccc(C(C)C)cc1.[Cl-].[O-]c1c(I)cc(Cl)c2cccnc12.[Ru+2]", "note": "[Compound 7]", "values": [{"measurement": "k+3", "setting": "AKR1C1", "value": 17.1, "unit": "M⁻¹ s⁻¹"}, {"measurement": "pKi", "setting": "AKR1C1; [1]", "value": 6.46}, {"measurement": "inhibitory effect (in words)", "setting": "AKR1C3", "value": "Almost no inhibition"}]}
{"smiles": "C1N2CN3CN1CP(C2)C3.Cc1ccc(C(C)C)cc1.F[P-](F)(F)(F)(F)F.[O-]c1c(I)cc(Cl)c2cccnc12.[Ru+2]", "note": "[Compound 8]", "values": [{"measurement": "pKi", "setting": "AKR1C1; [2]", "value": 6.46}]}
{"smiles": "Cc1ccc(C(C)C)cc1.O=[N+]([O-])c1ccc([O][Ru][Cl])c2ncccc12", "note": "[Compound 9, (η ^6-p-Cymene) (nitroxolinato)chloridoruthenium (II)]", "values": [{"measurement": "inhibitory effect (in words)", "setting": "AKR1C1", "value": "very weak inhibitory effect"}, {"measurement": "irreversible inhibition (in words)", "setting": "AKR1C1", "value": "virtually no irreversible inhibition"}, {"measurement": "pKi", "setting": "AKR1C1; [2]", "value": 3.64}, {"measurement": "inhibitory effect (in words)", "setting": "AKR1C3", "value": "very weak inhibitory effect"}, {"measurement": "irreversible inhibition (in words)", "setting": "AKR1C3", "value": "virtually no irreversible inhibition"}, {"measurement": "pKi", "setting": "AKR1C3; [2]", "value": 3.36}]}
{"smiles": "C1N2CN3CN1CP(C2)C3.Cc1ccc(C(C)C)cc1.F[P-](F)(F)(F)(F)F.O=[N+]([O-])c1ccc([O][Ru+])c2ncccc12", "note": "[Compound 10, (η ^6-p-cymene)(nitroxolinato)(pta)ruthenium(II) hexafluorophosphate]", "values": [{"measurement": "k+2", "setting": "AKR1C1", "value": 13.5, "unit": "M⁻¹ s⁻¹"}, {"measurement": "pKi", "setting": "AKR1C1; [2]", "value": 4.30}, {"measurement": "inhibitory effect (in words)", "setting": "AKR1C3", "value": "Almost no inhibition"}, {"measurement": "irreversible inhibition (in words)", "setting": "AKR1C3", "value": "no irreversible inhibition"}, {"measurement": "pKi", "setting": "AKR1C3; [2]", "value": 3.25}]}
